This is an account of results in paper doi:10.1101/2025.10.31.685654v2 (biorxiv, 2026).

Where only a bound is given, the exact number is not on record here.

Holding throughout (assay): two-electrode voltage clamp, Xenopus oocytes
For orientation: In two-electrode clamp one electrode senses voltage and the other passes current.

Test [1] concerns the target T1, Dm-DopC1 (Daphnia magna, UniProt Z9WC39ES65, D188N).
T1 construct: full-length homomeric pentamer expressed from cRNA in Xenopus laevis oocytes; predicted signal peptide residues 1-26
It counts as cell-based.

Test [2] concerns the target T2, Dm-DopC1 (Daphnia magna, UniProt Z9WC39ES65, N92T).
T2 construct: full-length homomeric pentamer expressed from cRNA in Xenopus laevis oocytes; predicted signal peptide residues 1-26
It counts as cell-based. The source says: two-electrode voltage clamp, Xenopus oocytes on Dm-DopC1

Test [3] deals with T3, Dm-DopC1.
T3 construct: full-length homomeric pentamer expressed from cRNA in Xenopus laevis oocytes; predicted signal peptide residues 1-26
It counts as cell-based, Daphnia magna. The settings on record: antagonist against 50 µM dopamine; ND96 pH 7.5, -60 mV; 4-parameter fit, bottom = 0.

T1 sequence (Z9WC39ES65 27-520 D188N limits assumed): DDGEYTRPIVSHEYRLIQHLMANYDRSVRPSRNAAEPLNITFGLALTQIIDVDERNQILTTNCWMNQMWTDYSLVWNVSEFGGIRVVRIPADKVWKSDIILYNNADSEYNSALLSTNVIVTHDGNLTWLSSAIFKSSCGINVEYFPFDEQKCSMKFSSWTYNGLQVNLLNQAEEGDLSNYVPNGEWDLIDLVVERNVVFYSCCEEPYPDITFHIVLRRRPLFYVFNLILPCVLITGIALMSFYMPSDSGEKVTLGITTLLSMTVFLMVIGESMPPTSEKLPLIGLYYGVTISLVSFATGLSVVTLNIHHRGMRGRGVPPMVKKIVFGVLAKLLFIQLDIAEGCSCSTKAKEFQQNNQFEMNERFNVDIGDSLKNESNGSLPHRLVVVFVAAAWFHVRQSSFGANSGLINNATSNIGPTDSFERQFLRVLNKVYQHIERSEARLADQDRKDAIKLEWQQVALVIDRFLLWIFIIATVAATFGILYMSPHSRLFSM
T2 sequence (Z9WC39ES65 27-520 N92T limits assumed): as the sequence (Z9WC39ES65 27-520 D188N limits assumed) above, with N66T, N162D counted along it

Usually EC50 stands for the concentration needed to bring the measured effect to its halfway point. Low readings indicate an effect from little substance, high ones a need for much substance. Take `NCCc1ccc(O)c(O)c1` [dopamine]: the EC50 on Dm-DopC1 [1] was over 9000 µM. As to `NC[C@H](O)c1ccc(O)c(O)c1` [norepinephrine], the EC50 on Dm-DopC1 [2] came out at 440 ± 114 µM. Broadly, the IC50 is the concentration that gives 50% inhibition. Low values mean greater potency, high ones weaker potency. Consider `CN1CCc2cccc3c2[C@H]1Cc1ccc(O)c(O)c1-3` [apomorphine], for which the IC50 in the test on Dm-DopC1 [3] stood at 6 µM.

Consider `COc1cc2c3cc1Oc1cc(ccc1O)C[C@@H]1c4c(cc(OC)c(O)c4Oc4ccc(cc4)C[C@@H]3N(C)CC2)CC[N+]1(C)C` [tubocurarine], for which, in the test on Dm-DopC1 [3], half-maximal inhibition (IC50) required 0.9 µM. Still for that read-out and setting: under `CN1CCC[C@H]1c1cccnc1` [nicotine] stands 109 µM.
